Data: patent publication US20060223888A1, “Valproic acid analogues and pharmaceutical composition thereof” (priority 2002, published 2006)

What was measured:
PTZ-induced seizures = test: ED50 against PTZ-induced seizures, i.p.; type: in vivo; settings: Rattus norvegicus, ip, male Sprague-Dawley rats (n = 8)
Text: These compounds were investigated for anticonvulsant activity in mice^13 and rats (see results in Table 4) and found to be equivalent in potency to VPA.

[1] = Pharmacokinetics and tissue distribution (plasma, liver, brain) after i.p. administration; type: in vivo, male Sprague-Dawley rats; settings: rat, FIG. 1, Table 5

Compound: CCC=C(CCC)C(=O)O [(E)-2-ene VPA, 2-propylpent-2-enoic acid]
- ED50 (PTZ-induced seizures): 185 mg/kg
- Affinity for / accumulation in the liver (in words) [1]: markedly reduced affinities for liver

Compound: O=C(O)/C=C/C=C1CCCC1 [Compound 41a, (2E)-4-Cyclopentylidenebut-2-enoic Acid]
- melting point: 112 to 114 °C

Compound: O=C(O)/C=C/C=C1CCCCC1 [Compound 41b, (2E)-4-Cyclohexylidenebut-2-enoic Acid]
- melting point: 132 to 134 °C

Compound: O=C(O)/C=C/C=C1CCCCCC1 [Compound 41c, (2E)-4-Cycloheptylidenebut-2-enoic Acid]
- melting point: 88 to 89 °C

Compound: O=C(O)/C=C/C=C1CCCCCCC1 [Compound 41d, (2E)-4-Cyclooctylidenebut-2-enoic Acid]
- melting point: 114 to 116 °C

Compound: O=C(O)/C=C\C=C1CCCC1 [Compound 42a, (2Z)-4-Cyclopentylidenebut-2-enoic Acid]
- melting point: 105 to 107 °C

Compound: O=C(O)/C=C\C=C1CCCCC1 [Compound 42b, (2Z)-4-Cyclohexylidenebut-2-enoic Acid]
- melting point: 121 to 123 °C

Compound: O=C(O)/C=C\C=C1CCCCCC1 [Compound 42c, (2Z)-4-Cycloheptylidenebut-2-enoic Acid]
- melting point: 86 to 88 °C

Compound: O=C(O)/C=C\C=C1CCCCCCC1 [Compound 42d, (2Z)-4-Cyclooctylidenebut-2-enoic Acid]
- melting point: 110 to 112 °C
